For series [1], the system named is L. donovani intramacrophage amastigotes. The series is described as follows: L. donovani intramacrophage assay (amastigotes in differentiated THP-1 cells). The class given is cell-based, Leishmania donovani. The conditions noted are these: Leishmania donovani; L. donovani amastigotes in differentiated THP-1 cells; read-out: Intramacrophage EC50. The method, then:
T. cruzi4, Leishmania donovani axenic amastigote, cidal axenic amastigote and intra-
macrophage drug sensitivity assays were conducted as previously described5,6. […]
5. Intrinsic clearance (CLint) […]
6. Pharmacokinetic studies. […]

Another series deals with THP-1 cells. The series is described as follows: Mammalian cell growth inhibition (THP-1). The class given is cell-based. Particulars: Homo sapiens. From the text: We hypothesized that, in view of their structural similarity, 1 and 2 probably shared the same mechanism of action.
Series [2] is described as follows: Intrinsic clearance in mouse liver microsomes. The class given is in vitro ADME. The method, then: page 13: 4. Parasite assays T. cruzi4, Leishmania donovani axenic amastigote, cidal axenic amastigote and intra- macrophage drug sensitivity assays were conducted as previously described5,6. a. […] Instead of a single readout at 72 h, multiple identical plates were used and read at different time points (24, 48, 72 h). Rate of kill curves showing the luminescence signal at each time point for each concentration were plotted. 5. […] The rate of intrinsic clearance (CLint) of each test compound was then calculated using the following calculation: CLint(mL/min/g liver) = k x V x Microsomal protein yield Where V (mL/mg protein) is the incubation volume/mg protein added and microsomal protein yield is taken as 52.5 mg protein/g liver. Verapamil (0.5 μM) was used as a positive control to confirm acceptable assay performance. 6. Pharmacokinetic studies. a. Mouse and dog PK Mouse pharmacokinetic studies were conducted in male CD-1 mice and male beagle dogs. 3 animals per group were used for each study performed. A dose of 3 mg/kg was administered intravenously, in a bolus form to mice and infused over a 30 min period to dogs. For all the intravenous studies compound were dissolved in 5% DMSO/20% kleptose in saline. A dose of 10 mg/kg was orally administered by gavage to the two species in a suspension of 1% methylcellulose to investigate oral pharmacokinetics. S13
(In general: Liver microsomes are vesicles of endoplasmic reticulum, rich in cytochrome P450 enzymes.)

For series [3], the system named is L. donovani promastigotes. As to the kind of experiment: microbe, parasite or virus in culture. The format is cell-based, Leishmania donovani. The method, then: 9. Mode of action studies a. Cell lines and culture conditions […]
c. Generation of drug-resistant parasites […]
donovani in the continuous presence of this compound. Starting at a sub-lethal […]
After a total of 120 days in
Genomic DNA was harvested from three independently generated L. donovani resistant clones and an age match control, as previously described27. PCR was performed using Platinum PCR Supermix (Invitrogen), as per manufacturer’s […]
generated using primers SubunitB4FW and SubunitB4RV, then sequenced using primer SubunitB4FW (Table S6). To sequence the β5 subunit (LdBPK_361730.1), an […]
sequenced using primer SubunitB5FW. PCR amplification and DNA sequencing were performed in triplicate for each independently generated cell line. The Leishmania donovani BPK282A1 sequences of the two subunits were identified in TriTrypDB and […]
e. Generation of overexpression constructs and LdBOB transgenic cell lines The genes encoding the mutated versions of the β4 (LdBPK_360340.1) and the β5 […]
parasites, were synthesised (GeneArt, Thermo Fischer Scientific). The synthetic genes, flanked by BamHI sites were cloned into the equivalent site of pIR1-SAT. The accuracy of all assembled constructs was verified by sequencing.
Mid-log-phase L. donovani promastigotes (LdBOB) were transfected with overexpression constructs using the Human T-Cell Nucleofector kit and the Amaxa Nucleofector electroporator (program V-033). Following transfection, cells were […]
to appropriate drug selection (100 µg/mL nourseothricin). Cloned cell lines were […]
selection for one passage prior to experiments. […]

Series [4] is described as follows: CAD (charged aerosol detector) solubility.
A short description of series [5]: Solubility in fasted simulated intestinal fluid (FaSSIF). Particulars: fasted simulated intestinal fluid (FaSSIF), fassif.
Setting [6] is: Leishmania donovani, RES II-resistant cells.
The mark [7] stands for this setting: Leishmania donovani, WT promastigotes.

≈ marks a conversion by molar mass, not a printed value.

The EC50 is the concentration that produces a half-maximal response. One may read the solubility as the concentration that dissolves in the medium under given conditions. A high value points to a readily soluble substance. For the molecule `O=C(Nc1ccc(F)c(-c2cn3nc(-c4ccccc4)cnc3n2)c1)N1CCCC1` [Compound 7], the EC50 in series [1] is 350 nM; in the series on THP-1 cells, over 50000 nM; in series [3] (setting [6]), over 1000 nM; in series [3] (setting [7]) it was 3.5 ± 0.09 nM; in series [3] (Leishmania donovani, WT, overexpression experiment (Fig. 3D)) it was 9.4 ± 0.14 nM; in series [3] (Leishmania donovani, β4MUT cells (overexpressing β4 T30A)) it was 11.2 ± 0.2 nM. The molecule further registered an EC50 in series [3] (Leishmania donovani, β5MUT cells (overexpressing β5 G197C)) of 37.6 ± 0.6 nM. Further, the CLint in series [2] worked out at 1.7 mL/min/g. Besides, the “resistance of compound 7-resistant clones” value in series [3] (resistant clones vs WT) is over 100 fold. In addition, the “reduction of susceptibility on overexpression of mutated β5 subunit” value in series [3] (β5 G197C overexpression vs WT) is on record as “fourfold”. Moreover, the solubility is 7 µg/mL (≈ 17.4 µM) in series [4] and 1 µg/mL (≈ 2.48 µM) in series [5].
Consider `O=C(Nc1ccc(F)c(-c2ccn3c(N4CCOCC4)cnc3n2)c1)N1CCCC1` [Compound 8], for which the half-maximal effective concentration (EC50) in series [1] is 1600 nM; with THP-1 cells, over 50000 nM; in series [3] (setting [6]), over 1000 nM; in series [3] (setting [7]), 14.6 ± 0.3 nM; in series [3] (WT promastigotes) it was 14 nM. The molecule also registered a CLint in series [2] of 0.77 mL/min/g. Further, the “CLint (intrinsic clearance when incubated with mouse liver microsomes)” value in series [2] came out at 0.8 mL/min per gram. Besides, the solubility in series [4] was 231 µg/mL (≈ 563 µM); in series [5] it was 180 µg/mL (≈ 439 µM).

The values are drawn from paper PMC6511062, “Preclinical candidate for the treatment of visceral leishmaniasis that acts through proteasome inhibition” (Proceedings of the National Academy of Sciences of the …, 2019).
